Results: patent publication EP0551200A1, “Protein phosphatase inhibitors for use in therapy” (priority 1992, dated 1993)

Columns and labels:
Egr-1 protein [1] = assay: Western blot analysis of Egr-1 protein from primary human fibroblasts; type: cell-based
Protocol: Quiescent primary human fibroblasts were incubated with MEM containing 0.5 µM of okadaic acid for the times indicated. As a positive control, the quiescent cells were also incubated with medium containing 20% fetal calf serum for 2 h. Total cellular proteins were extracted and subjected to Western blot analysis as described previously (Cao et al, Mol. Cell. Biol. 10, 1931-1939, 1989). The blot was reacted with anti-Egr-1 polyclonal antibody (R5232).
Cellular proteins were extracted from quiescient, okadaic acid-treated and serum-treated human fibroblasts and subjected to Western blot analysis using rabbit polyclonal Egr-1 antibodies. In the control quiescent cells, traces of Egr-1 protein with molecular masses of 80 kDa and 100 kDa were detected. An approximately 6-fold increase of the 80 kDa protein was measured in the cells 2 h after serum stimulation. An approximately 2-fold increase in the 80 kDa Egr-1 protein was detected in the cells after 1 h okadaic acid treatment. However, at 2.5 h after okadaic acid treatment the Egr-1 protein was mostly detected as the 100 kDa moiety rather than as the 80 kDa protein (Fig. 13). […] By 6 h after okadaic acid treatment the cellular level of the 100 kDa Egr-1 protein was reduced (Fig. 13). […]

Egr-1 protein [2] = assay: Immunoprecipitation of 32P-labeled Egr-1 protein from Balb/c 3T3 cells; type: cell-based, mouse; conditions: 2 h treatment; OA 0.5 µM, calyculin A 25 nM, 20% fetal calf serum
Protocol: Quiescent Balb/c 3T3 cells were labeled with [³²P]-orthophosphate and incubated with either 20% fetal calf serum or okadaic acid (0.5 µM) for 2 h as described in "Experimental Procedures" of Example 2. Egr-1 protein(s) was immunoprecipitated by anti-Egr-1 antibody (R5232) and subjected to 7.5% SDS-PAGE. The dried SDS-gel was autoradiographed. lanes C, S and OA show immunoprecipitated proteins derived from quiescent cells, serum and okadaic acid-treated cells respectively. • (B). The immunoprecipitated Egr-1 protein(s) from okadaic acid-treated [³²P]-labeled Balb/c 3T3 cells was also subjected to 2-D gel electrophoresis as previously described (Guy et al, J. Biol. Chem. 266, 14343-14352, 1991). […]
The radioactivity of the in vitro transcribed RNA was determined and equal amounts of radioactive RNA from uninduced and okadaic acid treated cells were used to hybridize to specific plasmid (5 µg) previously applied to a nylon matrix with the aid of a slot blot applicator (Schleicher & Schuell, Keene, NH, US). […]
Okadaic acid or calyculin A was then added to a final concentration of 0.5 µM or 25 nM respectively and incubated for another 2 h. […] The immunoprecipitated proteins were analyzed by 7.5% SDS-PAGE as well as by two-dimensional gel electrophoresis as described previously (Guy et al, J. Biol. Chem. 266, 14343-14352, 1991). […]

c-abl = assay: Phosphorylation of cdc2 kinase substrate c-abl, immunoprecipitation; type: cell-based, human; conditions: 50 units/ml TNF or 100 nM OA
Protocol: Where c-abl (top panel) or p53 (bottom panel) phosphorylation was measured, cells were treated for the times indicated with 50 units/ml TNF or 100 nM OA. Where RB (middle panel) phosphorylation was measured, cells were treated for 15 min with the indicated doses of TNF (in units/ml) or OA (in nM). Cell lysates were immunoprecipitated with antibodies to either c-abl, RB, or p53 (from Oncogene Science). The immunoprecipitated proteins were subjected to 6 or 10% SDS-PAGE and autoradiography. Note that in the middle panel, the lesser extent of RB phosphorylation observed with 500 nM OA as compared to 100 nM OA is due to the loading of about four times less amount of protein in the 500 nM OA than the 100 nM OA-treated sample to the gel. At either concentration of OA, the ratio of the hyperphosphorylated form of RB is higher than the hypophosphorylated form of RB.
Phosphorylation of cdc2 Kinase Substrates in Cells Treated with IL-1, TNF, or Okadaic Acid - It is noted from Fig. 1 (e and f) that the phosphorylation of myosin light chain and nucleolin are enhanced by TNF and okadaic acid treatment. Both proteins are known to be substrates of cdc2 kinase. In this connection, a question was raised as to whether other cdc2 kinase substrates which are known to be phosphorylated by okadaic acid treatment are also effected in TNF-treated human fibroblasts. […]

Compound: C=C1[C@@H](O)[C@@H]2O[C@]3(CC[C@H](/C=C/[C@@H](C)[C@@H]4CC(C)=C[C@@]5(O[C@H](C[C@@](C)(O)C(=O)O)CC[C@H]5O)O4)O3)CC[C@H]2O[C@@H]1[C@@H](O)C[C@H](C)[C@H]1O[C@@]2(CCCCO2)CC[C@H]1C [okadaic acid]
- level of the 100 kDa Egr-1 protein relative to the 80 kDa Egr-1 protein of control cells (Egr-1 protein [1]; 0.5 µM, 2.5 h): 3 to 4 fold
- fold induction at 0.5 µM (Egr-1 protein [1]; Homo sapiens, Fibroblast, 1 h, read-out: increase in the 80 kDa Egr-1 protein): ~2
- Egr-1 phosphoprotein immunoprecipitated (in words) (Egr-1 protein [2]): high cellular concentration of the about 100 kDa Egr-1 phosphoprotein
- phosphorylation of c-abl (in words) (c-abl): enhanced the phosphorylation
